Patent US10363239B2, “Method for inhibiting growth of cancer cells” (Pain Therapeutics, Inc., priority 2013, dated 2019)
Where two headings read alike, the source gives them in different places.

Columns and labels:
mu opiate receptor (MOR) = assay: MOR agonist activity using [35S]GTPγS binding assay in striatal membranes; type: biochemical; settings: for MOR agonist activity ([35S]GTPγS binding), FLNA-Binding Compound as Agonist 1 μM + BFNA: 1 μM compound + 1 μM β-funaltrexamine
Procedure, shortened: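 Striatal membranes (200 μg) were preincubated 5 min at 30 °C in HEPES pH 7.5 with 100 mM NaCl, 1 mM MgCl2 and 0.5 nM [35S]GTPγS, then 5 min more with 0.1–10 μM compound. Gαo was immunoprecipitated and bound radioactivity counted by scintillation.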

[1] = target: FLNA pentapeptide of SEQ ID NO: 1 (Bn-VAKGL) (Homo sapiens, UniProt P21333); assay: FITC-NLX-based FLNA screening assay (inhibition of FITC-naloxone binding to Bn-VAKGL on streptavidin plates); settings: 10 nM FITC-NLX
[2] = Series B, 0.1 μM compound, relative to DAMGO
[3] = Series B, 0.1 μM compound, [35S]GTPγS binding to Gαo, striatal membranes
[4] = Series B, 1 μM compound + 1 μM β-FNA
[5] = Series B, 1 μM compound + β-FNA, relative to DAMGO + BFNA
[6] = Series B, 1 μM compound, relative to DAMGO
[7] = Series B, 1 μM compound, [35S]GTPγS binding to Gαo, striatal membranes
[8] = read-out: Percent Binding Inhibition, FLNA-binding compound 0.01 μM
[9] = read-out: Percent Binding Inhibition, FLNA-binding compound 0.1 μM
[10] = read-out: Percent Binding Inhibition, FLNA-binding compound 1 μM
[11] = Series C-2, 0.1 μM compound, relative to DAMGO
[12] = Series C-2, 0.1 μM compound, [35S]GTPγS binding to Gαo, striatal membranes
[13] = Series C-2, 1 μM compound + 1 μM β-FNA
[14] = Series C-2, 1 μM compound + β-FNA, relative to DAMGO + BFNA
[15] = Series C-2, 1 μM compound, relative to DAMGO
[16] = Series C-2, 1 μM compound, [35S]GTPγS binding to Gαo, striatal membranes
[17] = 0.1 μM compound relative to DAMGO
[18] = 1 μM compound + BFNA relative to DAMGO + BFNA
[19] = 1 μM compound relative to DAMGO

SMILES | % DAMGO (0.1 μM) (mu opiate receptor (MOR); [2]) [%] | MOR agonist activity, percent [35S]GTPγS binding at the stated compound concentration (mu opiate receptor (MOR); [3]) [%] | MOR agonist activity, percent [35S]GTPγS binding at the stated compound concentration (mu opiate receptor (MOR); [4]) [%] | % DAMGO + BFNA (mu opiate receptor (MOR); [5]) [%] | % DAMGO (1 μM) (mu opiate receptor (MOR); [6]) [%] | MOR agonist activity, percent [35S]GTPγS binding at the stated compound concentration (mu opiate receptor (MOR); [7]) [%] | inhibition at 0.01 µM [1, 8] [%] | inhibition at 0.1 µM [1, 9] [%] | inhibition at 1 µM [1, 10] [%] | % DAMGO (0.1 μM) (mu opiate receptor (MOR); [11]) [%] | MOR agonist activity, percent [35S]GTPγS binding at the stated compound concentration (mu opiate receptor (MOR); [12]) [%] | MOR agonist activity, percent [35S]GTPγS binding at the stated compound concentration (mu opiate receptor (MOR); [13]) [%] | % DAMGO + BFNA (mu opiate receptor (MOR); [14]) [%] | % DAMGO (1 μM) (mu opiate receptor (MOR); [15]) [%] | MOR agonist activity, percent [35S]GTPγS binding at the stated compound concentration (mu opiate receptor (MOR); [16]) [%] | other results
COc1c2c(cc3c1C(CC(O)CCc1ccccc1)N(C)CC3)OCO2 (stereo not drawn) [Compound B0051] | 68.4 | 115.6 | 43.8 | 263.9 | 76.7 | 167.9 |  |  |  |  |  |  |  |  |  | inhibition at 0.01 µM ([1]; FLNA-binding compound 0.01 μM, read-out: Percent Binding Inhibition): 29.9%; inhibition at 0.1 µM ([1]; FLNA-binding compound 0.1 μM, read-out: Percent Binding Inhibition): 35.7%; inhibition at 1 µM ([1]; FLNA-binding compound 1 μM, read-out: Percent Binding Inhibition): 43.7%
COc1ccccc1CC(=O)CC1c2c(cc3c(c2OC)OCO3)CC[N+]1(C)C (stereo not drawn) [Compound 5009] | 66.9 | 128.5 | 87.5 | 181.5 | 83.2 | 270.4 | 42.5 | 47.3 | 54.3 |  |  |  |  |  |  | 
CC(=O)c1ccc(S(=O)(=O)N2CCC3(CC2)NC(=O)CN3S(=O)(=O)c2ccc(C(C)=O)cc2)cc1 [Compound C0064] |  |  |  |  |  |  | 37.3 | 44.4 | 49.2 |  |  |  |  |  |  | % DAMGO (0.1 μM) (mu opiate receptor (MOR); Series C-1, 0.1 μM compound, relative to DAMGO): 124.2%; Concentration of FLNA-Binding Compound as Agonist 0.1 μM (mu opiate receptor (MOR); Series C-1, 0.1 μM compound, [35S]GTPγS binding to Gαo, striatal membranes): 213.8%; Concentration of FLNA-Binding Compound as Agonist 1 μM + BFNA (mu opiate receptor (MOR); Series C-1, 1 μM compound + 1 μM β-FNA): 38.1%; % DAMGO + BFNA (mu opiate receptor (MOR); Series C-1, 1 μM compound + β-FNA, relative to DAMGO + BFNA): 110.4%; % DAMGO (1 μM) (mu opiate receptor (MOR); Series C-1, 1 μM compound, relative to DAMGO): 159.1%; Concentration of FLNA-Binding Compound as Agonist 1 μM (mu opiate receptor (MOR); Series C-1, 1 μM compound, [35S]GTPγS binding to Gαo, striatal membranes): 349.6%
CN1CCC2(CC1)OCCN2S(=O)(=O)c1ccc(S(C)(=O)=O)cc1 [Compound C0106M] |  |  |  |  |  |  | 45.8 | 55.6 | 58.9 | 102.5 | 171.8 | 117.2 | 246.7 | 108.3 | 240.7 | 
CC1CCC(C(C)C)C(OCC(O)CN2CCC(=O)CC2)C1 (stereo not drawn) [Compound A0060] |  |  |  |  |  |  | 32.4 | 39 | 42 |  |  |  |  |  |  | MOR agonist activity ([35S]GTPγS binding), FLNA-Binding Compound as Agonist 0.1 μM (mu opiate receptor (MOR); 0.1 μM compound): 99.7%; % DAMGO (0.1 μM) (mu opiate receptor (MOR); [17]): 63.9%; MOR agonist activity ([35S]GTPγS binding), FLNA-Binding Compound as Agonist 1 μM (mu opiate receptor (MOR); 1 μM compound): 158.2%; MOR agonist activity ([35S]GTPγS binding), FLNA-Binding Compound as Agonist 1 μM + BFNA (mu opiate receptor (MOR)): 14.3%; % DAMGO + BFNA (mu opiate receptor (MOR); [18]): 35.8%; % DAMGO (1 μM) (mu opiate receptor (MOR); [19]): 68.6%
CS(=O)(=O)c1ccc(S(=O)(=O)N2CCOC23CCNCC3)cc1 [Compound C0116M] |  |  |  |  |  |  | 53.9 | 60 | 62.9 | 136.6 | 258.4 | 152.0 | 313.4 | 122.0 | 302.8 | 
COc1ccc(S(=O)(=O)N2CCC3(CC2)NCCC(=O)N3)cc1 [Compound C0142M] |  |  |  |  |  |  | 35.1 | 39.4 | 56 | 97.8 | 143.7 | 98.7 | 251.1 | 95.2 | 192.5 | 
CC1CCC(C(C)C)C(OCC(O)CN2CCC(=O)C(C)C2)C1 (stereo not drawn) [Compound A0056] |  |  |  |  |  |  | 34.4 | 40.9 | 41.3 |  |  |  |  |  |  | MOR agonist activity ([35S]GTPγS binding), FLNA-Binding Compound as Agonist 0.1 μM (mu opiate receptor (MOR); 0.1 μM compound): 115.6%; % DAMGO (0.1 μM) (mu opiate receptor (MOR); [17]): 74.1%; MOR agonist activity ([35S]GTPγS binding), FLNA-Binding Compound as Agonist 1 μM (mu opiate receptor (MOR); 1 μM compound): 129.6%; MOR agonist activity ([35S]GTPγS binding), FLNA-Binding Compound as Agonist 1 μM + BFNA (mu opiate receptor (MOR)): 17.4%; % DAMGO + BFNA (mu opiate receptor (MOR); [18]): 43.6%; % DAMGO (1 μM) (mu opiate receptor (MOR); [19]): 56.2%
COc1ccc(CCC(=O)CC2c3c(cc4c(c3OC)OCO4)CC[N+]2(C)C)cc1 (stereo not drawn) [Compound B0016] | 99.2 | 167.7 | 72.2 | 109.4 | 79.9 | 213.6 | 27.1 | 33.7 | 41.9 |  |  |  |  |  |  | 
